Where a SMILES comes first, the peptide text is derived from it. Where no end group is shown, it is not given here. [ ]: non-standard residue; d: D form. Dmt = Cc1cc(O)cc(C)c1C[C@H](N)C(=O)O
How the values were obtained:
[1] = test system: patient with a homozygous AGK founder mutation (Sengers syndrome); settings: approximately six months, 0.25 then 0.50 mg/kg/day intravenous
Method: The patient was treated with D-Arg-2′6′-Dmt-Lys-Phe-NH2 for approximately six months through a compassionate care protocol.

[2] = test system: several mammalian cell types; settings: cited from earlier work
[3] = target: mu-opioid receptor (Homo sapiens, UniProt P35372); test: Mu-opioid receptor agonist activity (stated, no test described); settings: statement of the description, no test given
Chain of mu-opioid receptor (P35372 whole entry, species assumed): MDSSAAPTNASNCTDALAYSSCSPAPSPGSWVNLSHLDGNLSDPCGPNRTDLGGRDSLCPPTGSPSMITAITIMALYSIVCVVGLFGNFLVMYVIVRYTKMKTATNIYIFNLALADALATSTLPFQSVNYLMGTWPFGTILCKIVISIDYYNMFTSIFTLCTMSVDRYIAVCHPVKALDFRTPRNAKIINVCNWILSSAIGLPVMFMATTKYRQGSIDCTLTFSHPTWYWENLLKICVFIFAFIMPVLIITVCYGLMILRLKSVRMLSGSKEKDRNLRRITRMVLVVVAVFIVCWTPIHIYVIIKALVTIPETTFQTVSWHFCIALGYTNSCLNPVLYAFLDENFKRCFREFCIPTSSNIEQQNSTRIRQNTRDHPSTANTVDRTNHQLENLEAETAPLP

| Compound | mu-opioid receptor agonist activity [3] | other results |
| --- | --- | --- |
| Cc1cc(O)cc(C)c1C[C@H](NC(=O)[C@H](N)CCCNC(=N)N)C(=O)N[C@@H](CCCCN)C(=O)N[C@@H](Cc1ccccc1)C(N)=O [D-Arg-2′6′-Dmt-Lys-Phe-NH2] (H-[dR][Dmt]KF-NH2) |  | Side effects attributable to treatment [1]: no discernable side effects |
| 2′, 6′-Dmt-D-Arg-Phe-Lys-NH2 |  | Penetration of the plasma membrane [2]: readily penetrates the plasma membrane of several mammalian cell types in an energy-independent manner |
| F[dR]FK-NH2 | does not have mu-opioid receptor agonist activity |  |
| Tyr-D-Arg-Phe-Lys-NH2 | has mu-opioid receptor agonist activity |  |
